In patent publication US6352988B2, “Indane or dihydroindole derivatives” (H. Lundbeck A/S, priority 1996, dated 2002):

Molecular target: T1, dopamine D4 receptors in cloned human dopamine receptor subtype 4.2 membranes (Homo sapiens, UniProt P21917, DEL271-302)
T1 sequence (P21917 with tags, fused parts or gaps DEL271-302): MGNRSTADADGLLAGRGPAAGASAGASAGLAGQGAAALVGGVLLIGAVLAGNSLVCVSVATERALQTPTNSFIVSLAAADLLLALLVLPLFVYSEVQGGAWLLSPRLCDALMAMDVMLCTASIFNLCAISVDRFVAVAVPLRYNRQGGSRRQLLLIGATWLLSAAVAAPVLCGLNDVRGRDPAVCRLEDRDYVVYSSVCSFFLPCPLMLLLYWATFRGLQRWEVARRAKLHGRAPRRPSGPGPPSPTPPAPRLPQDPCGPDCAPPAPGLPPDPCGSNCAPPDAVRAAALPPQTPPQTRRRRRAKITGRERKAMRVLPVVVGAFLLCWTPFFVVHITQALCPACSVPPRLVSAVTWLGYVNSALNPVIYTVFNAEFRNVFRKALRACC
Assay: 3H-YM-09151-2 binding (affinity for dopamine D4 receptors)
Conditions: 3H-YM-09151-2, cloned human D4.2 membranes; * means that the test result is preliminary; read-out: D4-bind. IC50
Description: By this method the inhibition by drugs of the binding of the dopamine D4 antagonist ^3H-YM-09151-2 to dopamine D4 receptors in cloned human dopamine receptor subtype 4.2 membranes is determined in vitro. Accordingly, this is a test for affinity for dopamine D4 receptors. The test is performed using a preparation of cloned dopamine D4 cell membranes CRM-016®, Dupharma A/S, Denmark, in accordance with the product specifications.

SMILES	IC50 [nM]
CC(=O)Nc1ccc2c(c1)C(CCCCN1CC=C(c3c[nH]c4cc(Cl)ccc34)CC1)CC2 (stereo not shown) [Compound 18e, 6-Chloro-3-[1-[4-(6-acetylaminoindan-1-yl)butan-1-yl]-1,2,3,6-tetrahydropyridin-4-yl]-1H-indole]	66
N#Cc1ccc2c(c1)C(CN1CC=C(c3c[nH]c4cc(Cl)ccc34)CC1)CC2 (stereo not shown) [Compound 6a, 6-Chloro-3-[1-(6-cyano-1-indanylmethyl)-1,2,3,6-tetrahydropyridin-4-yl]-1H-indole]	6.8
Fc1ccc2[nH]cc(C3CCN(CCCCC4CCc5ccccc54)CC3)c2c1 (stereo not shown) [Compound 8e, 5-fluoro-3-[1-[4-(indan-1-yl)butan-1-yl]-piperidin-4-yl]-1H-indole]	8.3
C1=C(n2ccc3ccccc32)CCN(CCC2Cc3ccccc3C2)C1 [Compound 28b, 1-[1-[2-(Indan-2-yl)ethyl]-1,2,3,6-tetrahydropyridin-4-yl]-1H-indole]	14
C1=C(c2c[nH]c3ccccc23)CCN(CC2CCc3ccccc32)C1 (stereo not shown) [Compound 5a, 3-[1-(1-Indanylmethyl)-1,2,3,6-tetrahydropyridin-4-yl]-1H-indole]	3.5
Clc1ccc2c(C3=CCN(CC4CCc5ccc(Br)cc54)CC3)c[nH]c2c1 (stereo not shown) [Compound 6e, 6-Chloro-3-[1-(6-bromo-1-indanylmethyl)-1,2,3,6-tetrahydropyridin-4-yl]-1H-indole]	84
Fc1ccc2[nH]cc(C3CCN(CCC4CCc5ccccc54)CC3)c2c1 (stereo not shown) [Compound 8c, 5-fluoro-3-[1-[2-(indan-1-yl)ethyl]-piperidin-4-yl]-1H-indole]	2.3
c1ccc2c(c1)CC(CCN1CCN(c3cccc4[nH]ccc34)CC1)C2 [Compound 25a, 4-[4-[2-(Indan-2-yl)ethyl]piperazin-1-yl]-1H-indole]	2.7
c1ccc2c(c1)CC(CCN1CCN(c3ccc4[nH]ccc4c3)CC1)C2 [Compound 25b, 5-[4-[2-(Indan-2-yl)ethyl]piperazin-1-yl]-1H-indole]	5.3
CC(=O)Nc1ccc2c(c1)C(CCN1CC=C(c3c[nH]c4cc(Cl)ccc34)CC1)CC2 (stereo not shown) [Compound 18c]	41
COc1cccc2c1C(CN1CC=C(c3c[nH]c4cc(Cl)ccc34)CC1)CC2 (stereo not shown) [Compound 5c, 6-Chloro-3-[1-(7-methoxyindan-1-yl)methyl-1,2,3,6-tetrahydropyridin-4-yl]-1H-indole]	32
CC(=O)Nc1cccc2c1CC(CN1CC=C(c3c[nH]c4cc(Cl)ccc34)CC1)C2 (stereo not shown) [Compound 18a, 6-Chloro-3-[1-(4-acetylaminoindan-2-yl)methyl-1,2,3,6-tetrahydropyridine-4-yl]-1H-indole]	7.5
Clc1ccc2c(ccn2C2=CCN(CCC3Cc4ccccc4C3)CC2)c1 [Compound 28a, 5-Chloro-1-[1-[2-(indan-2-yl)ethyl]-1,2,3,6-tetrahydropyridin-4-yl]-1H-indole]	160
c1ccc2c(c1)CCC2CN1CCC(c2c[nH]c3ccccc23)CC1 (stereo not shown) [Compound 5b, 3-[1-(1-Indanylmethyl)piperindin-4-yl]-1H-indole]	5
Clc1ccc2c(C3=CCN(CC4Cc5ccccc5C4)CC3)c[nH]c2c1 [Compound 11a, 6-Chloro-3-[1-(indan-2-yl)methyl-1,2,3,6-tetrahydropyridin-4-yl]-1H-indole]	2.8
Clc1ccc2c(C3=CCN(CC4CCc5ccc6[nH]ccc6c54)CC3)c[nH]c2c1 (stereo not shown) [Compound 16a, 8-[4-(6-Chloro-1H-indol-3-yl)-1,2,3,6-tetrahydropyridin-1-ylmethyl]-3,6,7,8-tetrahydro-cyclopent[e]indole]	6.2
CC(=O)Nc1ccc2c(c1)CCC2CN1CC=C(c2c[nH]c3cc(Cl)ccc23)CC1 (stereo not shown) [Compound 6d, 6-Chloro-3-[1-(5-acetylamino-1-indanylmethyl)-1,2,3,6-tetrahydropyridin-4-yl]-1H-indole]	30
N#Cc1ccc2c(c1)C(CN1CCC(c3c[nH]c4cc(Cl)ccc34)CC1)CC2 (stereo not shown) [Compound 6b, 6-Chloro-3-[1-(6-cyano-1-indanylmethyl)piperidin-4-yl]-1H-indole]	3.3

SMILES	IC50 [nM]
CC(=O)N1CC(CCN2CCN(c3ccc4[nH]ccc4c3)CC2)c2ccccc21 (stereo not shown) [Compound 20j, 5-[4-[2-(1-Acetyl-2,3-dihydro-1H-indol-3-yl)ethyl]piperazin-1-yl]-1H-indole]	6.9
c1ccc2c(c1)CC(CN1CCN(c3ccc4[nH]ccc4c3)CC1)C2 [Compound 11f, 5-[4-(Indan-2-yl)methylpiperazin-1-yl]-1H-indole]	1.6
CC(=O)N1CC(CCN2CC=C(c3c[nH]c4c(Cl)cccc34)CC2)c2ccccc21 (stereo not shown) [Compound 20f, 3-[1-[2-(1-Acetyl-2,3-dihydro-1H-indol-3-yl)ethyl]-1,2,3,6-tetrahydropyridin-4-yl]-7-chloro-1H-indole]	3.2
CC(=O)N1CC(CCN2CC=C(c3c[nH]c4cc5c(cc34)OCO5)CC2)c2ccccc21 (stereo not shown) [Compound 20h, 3-[1-[2-(1-Acetyl-2,3-dihydro-1H-indol-3-yl)ethyl]-1,2,3,6-tetrahydropyridin-4-yl]-5,6-methylenedioxy-1H-indole]	30
Clc1ccc2c(C3=CCN(CCC4CNc5ccccc54)CC3)c[nH]c2c1 (stereo not shown) [Compound 30a, 6-Chloro-3-[1-[2-(2,3-dihydro-1H-indol-3-yl)ethyl]-1,2,3,6-tetrahydropyridin-4-yl]-1H-indole]	9.9
Clc1cccc2c(C3=CCN(CC4Cc5ccccc5C4)CC3)c[nH]c12 [Compound 11c, 7-Chloro-3-[1-(indan-2-yl)methyl-1,2,3,6-tetrahydropyridin-4-yl]-1H-indole]	3.8
CC(=O)N1CC(CCN2CC=C(c3c[nH]c4c(Cl)c(Cl)ccc34)CC2)c2ccccc21 (stereo not shown) [Compound 20g, 3-[1-[2-(1-Acetyl-2,3-dihydro-1H-indol-3-yl)ethyl]-1,2,3,6-tetrahydropyridin-4-yl]-6,7-dichloro-1H-indole]	16
CC(=O)N1CC(CCN2CC=C(c3c[nH]c4cc(Cl)ccc34)CC2)c2ccccc21 (single isomer, unassigned; (+)) [Compound 34a]	4
COc1ccc2c(c1)C(CN1CC=C(c3c[nH]c4ccccc34)CC1)CC2 (stereo not shown) [Compound 5d, 3-[1-(6-methoxyindan-1-yl)methyl-1,2,3,6-tetrahydropyridin-4-yl]-1H-indole]	20
CC(=O)Nc1ccc2c(c1)C(CCCN1CC=C(c3c[nH]c4cc(Cl)ccc34)CC1)CC2 (stereo not shown) [Compound 18d, 6-Chloro-3-[1-[3-(6-acetylaminoindan-1-yl)propan-1-yl]-1,2,3,6-tetrahydropyridin-4-yl]-1H-indole]	7.3
Clc1ccc2c(C3CCN(CC4Cc5ccccc5C4)CC3)c[nH]c2c1 [Compound 21a, 6-Chloro-3-[1-(indan-2-ylmethyl)piperidin-4yl]-1H-indole]	0.48
O=CN1CC(CCN2CCC(c3c[nH]c4cc(Cl)ccc34)CC2)c2ccccc21 (stereo not shown) [Compound 20d, 6-Chloro-3-[1-[2-(1-formyl-2,3-dihydro-1H-indol-3-yl)ethyl]piperidin-4-yl]-1H-indole]	3
O=CN1CC(CCN2CC=C(c3c[nH]c4cc(Cl)ccc34)CC2)c2ccccc21 (stereo not shown) [Compound 20c, 6-Chloro-3-[1-[2-(1-formyl-2,3-dihydro-1H-indol-3-yl)ethyl]-1,2,3,6-tetrahydropyridin-4yl]-1H-indole]	2.4
CC(=O)Nc1cccc2c1CC(CN1CCC(c3c[nH]c4cc(Cl)ccc34)CC1)C2 (stereo not shown) [Compound 18b, 6-Chloro-3-[1-(4-acetylaminoindan-2-yl)methylpiperidin-4-yl]-1H-indole]	4.3
CC(=O)N1CC(CCN2CC=C(c3c[nH]c4cc(Cl)ccc34)CC2)c2cc(C)ccc21 (stereo not shown) [Compound 20m, 3-[1-[2-(1-Acetyl-5-methyl-2,3-dihydro-1H-indol-3-yl)ethyl]-1,2,3,6-tetrahydropyridin-4-yl]-6-chloro-1H-indole]	8.4
CC(=O)N1CC(CCN2CCC(c3c[nH]c4cc(Cl)ccc34)CC2)c2ccccc21 (stereo not shown) [Compound 20b, 3-[1-[2-(1-Acetyl-2,3-dihydro-1H-indol-3-yl)ethyl]piperidin-4-yl]-6-chloro-1H-indole]	6.7
CC(=O)N1CC(CCCN2CC=C(c3c[nH]c4cc(Cl)ccc34)CC2)c2ccccc21 (stereo not shown) [Compound 20k, 3-[1-[3-(1-Acetyl-2,3-dihydro-1H-indol-3-yl)propyl]-1,2,3,6-tetrahydropyridin-4-yl]-6-chloro-1H-indole]	10
CC(C)(C)OC(=O)N1CC(CCN2CC=C(c3c[nH]c4cc(Cl)ccc34)CC2)c2ccccc21 (stereo not shown) [Compound 20i, 3-[1-[2-(1-tert-Butoxycarbonyl-2,3-dihydro-1H-indol-3-yl)ethyl]-1,2,3,6-tetrahydropyridin-4-yl]-6-chloro-1H-indole]	2.9

Same assay, conditions: at 50 nM; 3H-YM-09151-2, cloned human D4.2 membranes; read-out: D4-bind. % inhibition of binding at 50 nM

SMILES	inhibition at 0.05 µM [%]
CC(=O)N1CC(CCN2CC=C(c3c[nH]c4cc(Cl)ccc34)CC2)c2cc(Br)ccc21 (stereo not shown) [Compound 20e, 3-[1-[2-(1-Acetyl-5-bromo-2,3-dihydro-1H-indol-3-yl)ethyl]-1,2,3,6-tetrahydropyridin-4yl]-6-chloro-1H-indole]	21
